pIC50: −log10 of the molar value. Read-outs that look alike come from different tables or passages of the source.
Legend:
Assay type in all cases: biochemical
PI3Kδ = target: T1, PI3Kδ (Homo sapiens, UniProt O00329); test: PI3K kinases inhibition in vitro (ADP-Glo), PI3Kδ
T1 construct: purchased Merck Millipore
Experimental: (§1) Tested compounds were dissolved in 100% DMSO, and thus obtained solutions were serially diluted in 1× reaction buffer. Recombinant kinase was diluted in a reaction mixture comprising 5× reaction buffer, substrate (1 mM sodium diacetate 4,5-bisphosphate phosphatydylinositol (PIP2) solution in 40 mM Tris buffer), and water. To the wells in a 96-wells plate, 5 μl of compounds solutions and 15 μl of the kinase solution in the reaction mixture were added. To initiate interaction of tested chemical compounds with the enzyme, the plate was incubated for 10 minutes at suitable temperature in a plate thermostat with orbital shaking at 600 rpm. Negative control wells contained all above reagents except tested compound and kinase, and positive control wells contained all above reagents except tested compounds. Enzymatic reaction was initiated by adding 5 μl of 150 μM ATP solution, subsequently the plate was incubated for 1 hour at 25° C. or 30° C. (depending on PI3K isoform tested) in plate thermostat with orbital shaking of the plate contents at 600 rpm. Reaction conditions are presented below in Table 12.
(§2) Detection of ADP formed in the enzymatic reaction was then performed using ADP-Glo Kinase Assay (Promega). To the wells of a 96-well plate 25 μl of ADP-Glo Reagent were added, and the plate was incubated for 40 minutes at 25° C. in a plate thermostat with orbital shaking at 600 rpm. Then to the wells of 96-well plate 50 μl of Kinase Detection Reagent were added and the plate was incubated for 40 minutes at 25° C. in a plate thermostat with orbital shaking at 600 rpm. After incubation time, luminescence intensity in a well was measured by Victor Light luminometer (Perkin Elmer, Inc.).
(§3) IC50 values were determined on the basis of luminescence intensity measurements in wells containing tested compounds at different concentrations and in control wells. These values were calculated with Graph Pad 5.03 software by fitting the curve using non-linear regression. Each compound was tested at least in quadruplicates (4 wells) on two 96-well plates using at least 4 wells of each of the controls.

PI3Kγ = target: T2, PI3Kγ (Homo sapiens, UniProt P48736); test: PI3K kinases inhibition in vitro (ADP-Glo), PI3Kγ
T2 construct: purchased Merck Millipore
T2 sequence (P48736 whole entry): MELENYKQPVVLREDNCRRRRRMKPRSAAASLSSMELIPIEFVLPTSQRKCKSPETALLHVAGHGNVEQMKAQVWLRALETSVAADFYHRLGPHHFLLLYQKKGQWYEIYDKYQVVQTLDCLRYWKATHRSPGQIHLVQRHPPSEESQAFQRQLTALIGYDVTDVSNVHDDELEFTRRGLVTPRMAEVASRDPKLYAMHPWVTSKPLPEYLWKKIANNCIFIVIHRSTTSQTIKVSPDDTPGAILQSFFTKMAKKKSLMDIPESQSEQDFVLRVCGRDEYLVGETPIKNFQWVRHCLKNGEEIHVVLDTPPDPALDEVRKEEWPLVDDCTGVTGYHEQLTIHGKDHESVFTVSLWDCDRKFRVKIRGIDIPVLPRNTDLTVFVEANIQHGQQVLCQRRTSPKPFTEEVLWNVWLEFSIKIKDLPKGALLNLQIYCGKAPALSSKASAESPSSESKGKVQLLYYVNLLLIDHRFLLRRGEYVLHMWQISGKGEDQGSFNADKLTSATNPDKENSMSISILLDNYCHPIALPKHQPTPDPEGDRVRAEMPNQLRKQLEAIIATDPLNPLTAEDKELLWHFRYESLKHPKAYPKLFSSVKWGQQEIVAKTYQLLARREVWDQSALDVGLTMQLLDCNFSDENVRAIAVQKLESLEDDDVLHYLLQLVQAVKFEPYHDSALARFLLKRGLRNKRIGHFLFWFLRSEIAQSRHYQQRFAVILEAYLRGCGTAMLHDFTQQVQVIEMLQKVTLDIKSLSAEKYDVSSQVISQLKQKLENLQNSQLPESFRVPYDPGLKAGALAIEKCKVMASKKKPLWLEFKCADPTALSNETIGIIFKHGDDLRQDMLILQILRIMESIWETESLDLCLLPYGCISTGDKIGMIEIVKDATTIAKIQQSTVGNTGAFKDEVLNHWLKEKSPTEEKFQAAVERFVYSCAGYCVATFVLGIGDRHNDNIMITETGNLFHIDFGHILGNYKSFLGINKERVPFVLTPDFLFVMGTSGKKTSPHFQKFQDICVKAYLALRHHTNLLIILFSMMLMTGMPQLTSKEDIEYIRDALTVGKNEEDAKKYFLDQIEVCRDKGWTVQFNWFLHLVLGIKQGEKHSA
Experimental: as §1, §2, §3

PI3Kβ = target: T3, PI3Kβ (Homo sapiens, UniProt P42338); test: PI3K kinases inhibition in vitro (ADP-Glo), PI3Kβ
T3 construct: purchased Merck Millipore
T3 sequence (P42338 whole entry): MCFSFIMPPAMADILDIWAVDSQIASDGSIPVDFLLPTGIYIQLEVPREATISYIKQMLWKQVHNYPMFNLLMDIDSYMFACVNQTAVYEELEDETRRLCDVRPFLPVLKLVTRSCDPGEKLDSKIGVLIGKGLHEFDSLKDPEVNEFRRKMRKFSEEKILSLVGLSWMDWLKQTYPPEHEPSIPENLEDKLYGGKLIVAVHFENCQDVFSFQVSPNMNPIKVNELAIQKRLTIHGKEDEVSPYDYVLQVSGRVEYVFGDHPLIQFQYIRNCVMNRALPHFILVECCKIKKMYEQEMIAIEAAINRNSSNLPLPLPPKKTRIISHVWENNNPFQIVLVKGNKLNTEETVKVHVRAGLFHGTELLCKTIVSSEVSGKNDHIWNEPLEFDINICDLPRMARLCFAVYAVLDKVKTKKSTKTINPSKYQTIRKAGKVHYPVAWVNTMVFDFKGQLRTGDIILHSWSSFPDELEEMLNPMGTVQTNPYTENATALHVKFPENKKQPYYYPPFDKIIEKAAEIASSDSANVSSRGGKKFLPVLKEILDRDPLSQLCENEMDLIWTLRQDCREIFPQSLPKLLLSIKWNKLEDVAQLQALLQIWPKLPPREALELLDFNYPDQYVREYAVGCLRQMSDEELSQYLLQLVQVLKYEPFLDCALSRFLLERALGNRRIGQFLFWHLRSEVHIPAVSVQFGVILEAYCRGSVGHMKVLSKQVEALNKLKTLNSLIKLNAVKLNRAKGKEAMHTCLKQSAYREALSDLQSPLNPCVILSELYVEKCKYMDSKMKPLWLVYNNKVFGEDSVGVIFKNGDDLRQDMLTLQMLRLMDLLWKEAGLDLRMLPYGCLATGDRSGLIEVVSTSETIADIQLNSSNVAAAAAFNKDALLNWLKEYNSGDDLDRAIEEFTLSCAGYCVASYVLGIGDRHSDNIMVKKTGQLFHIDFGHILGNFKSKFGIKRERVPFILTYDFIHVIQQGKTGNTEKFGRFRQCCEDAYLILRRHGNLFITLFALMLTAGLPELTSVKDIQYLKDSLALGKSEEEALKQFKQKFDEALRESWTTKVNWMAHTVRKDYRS
T3 sequence (P27986 whole entry, further chain): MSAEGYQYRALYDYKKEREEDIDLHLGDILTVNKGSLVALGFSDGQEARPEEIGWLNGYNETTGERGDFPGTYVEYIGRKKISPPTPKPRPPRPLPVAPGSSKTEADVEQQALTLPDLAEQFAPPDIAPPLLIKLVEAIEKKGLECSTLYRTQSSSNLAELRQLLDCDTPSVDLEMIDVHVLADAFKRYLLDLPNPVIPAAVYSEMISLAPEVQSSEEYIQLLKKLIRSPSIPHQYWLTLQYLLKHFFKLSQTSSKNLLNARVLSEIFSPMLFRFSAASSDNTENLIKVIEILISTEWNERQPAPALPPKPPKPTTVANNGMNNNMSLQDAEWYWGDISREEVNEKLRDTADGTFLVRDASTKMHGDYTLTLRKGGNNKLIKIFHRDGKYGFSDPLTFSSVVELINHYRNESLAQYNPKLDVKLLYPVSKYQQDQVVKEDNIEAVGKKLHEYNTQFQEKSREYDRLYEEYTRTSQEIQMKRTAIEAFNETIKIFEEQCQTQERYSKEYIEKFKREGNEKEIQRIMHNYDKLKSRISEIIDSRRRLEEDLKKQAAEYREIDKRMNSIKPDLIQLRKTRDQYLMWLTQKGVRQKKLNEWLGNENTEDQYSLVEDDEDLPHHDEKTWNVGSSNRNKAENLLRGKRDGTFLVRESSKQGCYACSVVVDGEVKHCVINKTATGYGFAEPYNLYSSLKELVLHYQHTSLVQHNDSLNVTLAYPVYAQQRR
Experimental: as §1, §2, §3

PI3Kα = target: T4, PI3Kα (Homo sapiens, UniProt P42336); test: PI3K kinases inhibition in vitro (ADP-Glo), PI3Kα
T4 construct: purchased Carna Biosciences
T4 sequence (P42336 whole entry): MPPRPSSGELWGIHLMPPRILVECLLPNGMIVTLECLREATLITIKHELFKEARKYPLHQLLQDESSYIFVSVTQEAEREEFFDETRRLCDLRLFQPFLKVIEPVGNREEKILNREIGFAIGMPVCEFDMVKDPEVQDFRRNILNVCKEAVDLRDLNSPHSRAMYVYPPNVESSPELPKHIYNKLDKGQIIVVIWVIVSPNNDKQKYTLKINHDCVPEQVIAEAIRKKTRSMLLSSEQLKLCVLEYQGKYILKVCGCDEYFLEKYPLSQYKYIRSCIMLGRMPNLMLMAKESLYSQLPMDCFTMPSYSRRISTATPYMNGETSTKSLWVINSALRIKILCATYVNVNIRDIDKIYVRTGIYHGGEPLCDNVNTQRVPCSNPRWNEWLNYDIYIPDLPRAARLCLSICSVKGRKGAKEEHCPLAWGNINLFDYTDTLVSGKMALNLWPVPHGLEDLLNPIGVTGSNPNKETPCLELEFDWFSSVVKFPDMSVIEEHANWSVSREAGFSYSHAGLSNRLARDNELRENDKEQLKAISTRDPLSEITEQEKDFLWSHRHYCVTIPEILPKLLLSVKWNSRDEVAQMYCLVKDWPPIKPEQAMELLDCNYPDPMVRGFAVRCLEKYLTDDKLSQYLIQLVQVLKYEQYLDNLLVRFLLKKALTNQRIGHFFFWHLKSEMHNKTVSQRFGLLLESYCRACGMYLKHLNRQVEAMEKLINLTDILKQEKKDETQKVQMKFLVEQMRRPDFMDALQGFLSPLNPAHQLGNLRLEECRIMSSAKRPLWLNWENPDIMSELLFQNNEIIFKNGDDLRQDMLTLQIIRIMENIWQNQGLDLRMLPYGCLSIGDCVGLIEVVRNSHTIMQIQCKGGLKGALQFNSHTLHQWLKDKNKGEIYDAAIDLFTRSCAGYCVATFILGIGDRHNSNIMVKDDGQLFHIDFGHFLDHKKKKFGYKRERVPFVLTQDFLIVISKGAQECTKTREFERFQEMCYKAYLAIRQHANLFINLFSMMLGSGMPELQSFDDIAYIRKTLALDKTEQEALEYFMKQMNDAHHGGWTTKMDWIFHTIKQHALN
T4 sequence (P27986 whole entry partner): as the sequence (P27986 whole entry, further chain) above
Experimental: as §1, §2, §3

[1] = averaged, recombinant kinase, 25° C., 1 h, PIP2 30 μM, read-out: PI3Kδ IC50
[2] = averaged, recombinant kinase, 30° C., 1 h, PIP2 50 μM, read-out: PI3Kγ IC50
[3] = averaged, recombinant kinase, 30° C., 1 h, PIP2 50 μM, read-out: PI3Kβ IC50

T1 sequence (O00329 whole entry): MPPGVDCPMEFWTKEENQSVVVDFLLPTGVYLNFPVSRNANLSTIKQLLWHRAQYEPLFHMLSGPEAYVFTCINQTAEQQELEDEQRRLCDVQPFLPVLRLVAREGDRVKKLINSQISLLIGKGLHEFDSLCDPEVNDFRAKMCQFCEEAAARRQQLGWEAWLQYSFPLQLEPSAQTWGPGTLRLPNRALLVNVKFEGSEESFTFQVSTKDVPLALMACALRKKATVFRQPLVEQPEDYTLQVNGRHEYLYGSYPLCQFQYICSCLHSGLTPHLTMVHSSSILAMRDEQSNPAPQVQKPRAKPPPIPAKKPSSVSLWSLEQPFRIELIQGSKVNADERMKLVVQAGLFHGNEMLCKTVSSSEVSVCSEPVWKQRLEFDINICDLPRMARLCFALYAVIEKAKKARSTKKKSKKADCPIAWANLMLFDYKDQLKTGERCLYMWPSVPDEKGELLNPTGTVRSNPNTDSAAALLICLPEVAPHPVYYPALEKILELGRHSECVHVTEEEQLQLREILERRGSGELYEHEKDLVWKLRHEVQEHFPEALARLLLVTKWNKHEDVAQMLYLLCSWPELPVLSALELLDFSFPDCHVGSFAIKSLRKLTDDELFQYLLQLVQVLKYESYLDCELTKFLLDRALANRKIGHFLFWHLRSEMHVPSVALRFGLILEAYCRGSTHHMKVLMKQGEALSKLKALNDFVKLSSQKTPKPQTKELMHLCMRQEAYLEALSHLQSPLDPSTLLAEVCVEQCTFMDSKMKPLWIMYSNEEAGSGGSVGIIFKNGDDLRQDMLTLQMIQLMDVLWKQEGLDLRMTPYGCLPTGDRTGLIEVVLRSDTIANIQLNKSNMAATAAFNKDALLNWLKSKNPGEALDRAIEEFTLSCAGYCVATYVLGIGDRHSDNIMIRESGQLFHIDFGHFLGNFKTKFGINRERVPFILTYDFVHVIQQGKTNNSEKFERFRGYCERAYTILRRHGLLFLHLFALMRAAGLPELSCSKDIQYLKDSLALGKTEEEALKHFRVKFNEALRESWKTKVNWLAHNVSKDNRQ
T1 sequence (P27986 whole entry, further chain): as the sequence (P27986 whole entry, further chain) above

O=C(C1CC1)N1CCN(Cc2cc3nc(-c4cccc5[nH]ccc45)cc(N4CCOCC4)n3n2)CC1 [Example 1, 2-((4-(cyclopropanecarbonyl)piperazin-1-yl)methyl)-5-(1H-indol-4-yl)-7-(morpholin-4-yl)pyrazolo[1,5-a]pyrimidine]
pIC50 (PI3Kδ; [1]): > 7.00 | pIC50 (PI3Kγ; [2]): 6.00 to 7.00 | pIC50 (PI3Kβ; [3]): < 6.00 | pIC50 (PI3Kα): < 6.00

CN(C)C1CCN(Cc2cc3nc(-c4cccc5[nH]ccc45)cc(N4CCOCC4)n3n2)CC1 [Example 5, 2-((4-(dimethylamino)piperidin-1-yl)methyl)-5-(1H-indol-4-yl)-7-(morpholin-4-yl)pyrazolo[1,5-a]-pyrimidine]
pIC50 (PI3Kδ): > 7.00 | pIC50 (PI3Kγ): < 6.00 | pIC50 (PI3Kβ): < 6.00 | pIC50 (PI3Kα): < 6.00

CC(C)(O)C1CCN(Cc2cc3nc(-c4c(F)ccc5[nH]ccc45)cc(N4CCOCC4)n3n2)CC1 [Example 7, 2-((4-(2-hydroxypropan-2-yl)-piperidin-1-yl)methyl)-5-(5-fluoro-1H-indol-4-yl)-7-(morpholin-4-yl)-pyrazolo[1,5-a]pyrimidine]
pIC50 (PI3Kδ; [1]): > 7.00 | pIC50 (PI3Kγ; [2]): < 6.00 | pIC50 (PI3Kβ; [3]): < 6.00 | pIC50 (PI3Kα): < 6.00

CC(C)(C(N)=O)N1CCN(Cc2cc3nc(-c4cccc5[nH]ccc45)cc(N4CCOCC4)n3n2)CC1 [Example 9, 2-(4-((5-(1H-indol-4-yl)-7-(morpholin-4-yl)pyrazolo[1,5-a]-pyrimidin-2-yl)methyl)piperazin-1-yl)-2-methyl-propionamide]
pIC50 (PI3Kδ): > 7.00 | pIC50 (PI3Kγ): < 6.00 | pIC50 (PI3Kβ): < 6.00 | pIC50 (PI3Kα): < 6.00

CC(C)(C(N)=O)N1CCN(Cc2cc3nc(-c4c(F)ccc5[nH]ccc45)cc(N4CCOCC4)n3n2)CC1 [Example 10, 2-(4-((5-(5-fluoro-1H-indol-4-yl)-7-(morpholin-4-yl)pyrazolo[1,5-a]-pyrimidin-2-yl)methyl)piperazin-1-yl)-2-methyl-propionamide]
pIC50 (PI3Kδ; [1]): > 7.00 | pIC50 (PI3Kγ; [2]): < 6.00 | pIC50 (PI3Kβ; [3]): < 6.00 | pIC50 (PI3Kα): < 6.00

CN(C)C1CCN(Cc2cc3nc(-c4c(F)ccc5[nH]ccc45)cc(N4CCOCC4)n3n2)CC1 [Example 13, 2-((4-(dimethylamino)piperidin-1-yl)methyl)-5-(5-fluoro-1H-indol-4-yl)-7-(morpholin-4-yl)pyrazolo[1,5-a]pyrimidine]
pIC50 (PI3Kδ; [1]): > 7.00 | pIC50 (PI3Kγ; [2]): < 6.00 | pIC50 (PI3Kβ; [3]): < 6.00 | pIC50 (PI3Kα): < 6.00

CC(C)(C)N1CCN(Cc2cc3nc(-c4ccc(N)nc4)cc(N4CCOCC4)n3n2)CC1 [Example 16, 5-(2-aminopyridin-5-yl)-2-((4-tert-butylpiperazin-1-yl)methyl)-7-(morpholin-4-yl)pyrazolo[1,5-a]-pyrimidine]
pIC50 (PI3Kδ; [1]): > 7.00 | pIC50 (PI3Kγ; [2]): < 6.00 | pIC50 (PI3Kβ; [3]): < 6.00 | pIC50 (PI3Kα): < 6.00

c1cc(-c2cc(N3CCOCC3)n3nc(CN4CCN(C5CC5)CC4)cc3n2)c2cc[nH]c2c1 [Example 20, 2-((4-cyclopropyl-piperazin-1-yl)-methyl)-5-(1H-indol-4-yl)-7-(morpholin-4-yl)pyrazolo[1,5-a]-pyrimidine]
pIC50 (PI3Kδ): > 7.00 | pIC50 (PI3Kβ): < 6.00 | pIC50 (PI3Kα): < 6.00

CC(C)(O)C1CCN(Cc2cc3nc(-c4cncc5[nH]ccc45)cc(N4CCOCC4)n3n2)CC1 [Example 29, 5-(1H-6-azaindol-4-yl)-2-((4-(2-hydroxypropan-2-yl)piperidin-1-yl)methyl)-7-(morpholin-4-yl)-pyrazolo[1,5-a]pyrimidine]
pIC50 (PI3Kδ; [1]): > 7.00 | pIC50 (PI3Kβ; [3]): < 6.00 | pIC50 (PI3Kα): < 6.00

CC(C)(C)N1CCN(Cc2cc3nc(-c4ccnc5[nH]ccc45)cc(N4CCOCC4)n3n2)CC1 [Example 32, 5-(1H-7-azaindol-4-yl)-2-((4-tert-butylpiperazin-1-yl)methyl)-7-(morpholin-4-yl)pyrazolo[1,5-a]-pyrimidine]
pIC50 (PI3Kδ; [1]): > 7.00 | pIC50 (PI3Kβ; [3]): < 6.00 | pIC50 (PI3Kα): < 6.00

— patent US10138247B2, “7-(morpholin-4-yl)pyrazole[1,5-A]pyrimidine derivatives as PI3 kinase inhibitors” (priority 2015, dated 2018)
